Data: ChEMBL document CHEMBL5728717, “Amino pyrimidine compound for inhibiting protein tyrosine kinase activity” (2021)

Biological target: Epidermal growth factor receptor (Homo sapiens, UniProt P00533)
Experiment: Kinase Inhibition Assay: Reagents and Materials:WT EGFR (Carna, Cat. No. 08-115), EGFR [L858R] (Carna, Cat. No. 08-502), EGFR [L858R/T790M] (Carna, Cat. No. 08-510), ATP (Sigma, Cat. No. A7699-1G), DMSO (Sigma, Cat. No. D2650), 96-well plate (Corning, Cat. No. 3365), 384-well plate (Greiner, Cat. No. 784076), HTRF Kinase TK Kit (Cisbio, Cat. No. 62TK0PEJ), Erlotinib (Selleckchem, Cat. No. S7787) …
Description: Then, it was diluted in DMSO with a 3-fold series gradient dilution for 10 times. […] The corresponding substrate and ATP were added and reacted at room temperature for 20 minutes (in which a negative and a positive control were set: the negative control is blank and the positive control is erlotinib). […] The inhibitions of the enzyme activity by the compounds at different concentrations were then fitted using Graphpad 5.0 software according to the four-parameter equation, and the IC50 values were calculated.

Epidermal growth factor receptor, sequence (P00533 25-1210 limits assumed, stated change not applied): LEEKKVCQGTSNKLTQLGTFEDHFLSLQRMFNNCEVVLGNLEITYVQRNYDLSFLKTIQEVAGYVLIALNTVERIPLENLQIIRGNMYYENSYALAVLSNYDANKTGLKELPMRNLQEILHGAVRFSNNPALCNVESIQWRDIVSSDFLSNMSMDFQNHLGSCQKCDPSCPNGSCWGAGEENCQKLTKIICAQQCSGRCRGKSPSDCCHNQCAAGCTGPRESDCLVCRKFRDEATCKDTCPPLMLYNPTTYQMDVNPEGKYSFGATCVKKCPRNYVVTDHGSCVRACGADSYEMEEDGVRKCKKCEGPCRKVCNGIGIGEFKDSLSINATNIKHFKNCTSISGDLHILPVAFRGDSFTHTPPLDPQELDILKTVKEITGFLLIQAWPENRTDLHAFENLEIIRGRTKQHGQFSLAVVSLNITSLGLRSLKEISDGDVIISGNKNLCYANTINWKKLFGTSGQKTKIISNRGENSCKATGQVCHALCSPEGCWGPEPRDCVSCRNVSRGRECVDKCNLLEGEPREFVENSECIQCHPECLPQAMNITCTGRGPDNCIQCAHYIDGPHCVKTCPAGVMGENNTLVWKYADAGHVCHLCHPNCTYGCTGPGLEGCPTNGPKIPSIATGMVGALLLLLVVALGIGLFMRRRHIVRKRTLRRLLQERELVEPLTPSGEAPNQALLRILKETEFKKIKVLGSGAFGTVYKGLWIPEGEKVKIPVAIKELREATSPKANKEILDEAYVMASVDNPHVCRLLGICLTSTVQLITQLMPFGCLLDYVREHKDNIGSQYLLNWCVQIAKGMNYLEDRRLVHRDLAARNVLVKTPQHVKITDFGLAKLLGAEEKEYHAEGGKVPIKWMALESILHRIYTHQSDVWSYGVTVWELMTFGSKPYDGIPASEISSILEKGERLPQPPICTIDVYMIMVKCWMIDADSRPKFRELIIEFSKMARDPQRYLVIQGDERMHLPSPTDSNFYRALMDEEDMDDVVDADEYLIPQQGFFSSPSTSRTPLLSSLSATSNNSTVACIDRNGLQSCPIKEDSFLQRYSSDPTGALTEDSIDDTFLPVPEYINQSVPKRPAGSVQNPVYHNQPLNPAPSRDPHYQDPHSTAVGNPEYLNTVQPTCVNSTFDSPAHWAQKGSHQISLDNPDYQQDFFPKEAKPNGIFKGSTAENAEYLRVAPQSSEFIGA

SMILES: C=CC(=O)Nc1cc(Nc2nccc(-c3cc(F)c4nc(C)n(C(C)C)c4c3)n2)c(OC)cc1N1CCC(OC)CC1
- IC50: > 0.1 µM
